In US6413983B1, “Benzopyranyl heterocycle derivatives, process for preparation thereof, and pharmaceutical compositions containing them” (Dongbu Hannong Chemical Co. Ltd., priority 2000, dated 2002):
Where two headings read alike, the source gives them in different places.

Legend:
[1] = test system: cerebral cortical neurons; test: Protective activity for neuronal cells against iron-induced damage (LDH release); assay type: cell-based, rat; conditions: 30 μM compound, 50 uM FeSO4, 24 hours, LDH reduction rate vs control
Protocol: From the brains of 17-18 day-old rat embryos, cerebral cortical neurons were isolated and then, cultured at 37° C. for 7-9 days in a 5% CO2 incubator. The cortical cell cultures were washed twice with a minimum essential medium (MEM) to reduce the serum concentration to 0.2% and pre-treated for 30 min with 30 μM of each of test compounds. For the experiments, the test compounds were dissolved in DMSO and diluted in a medium. At this time, the final concentration of DMSO was not allowed to exceed 0.2%. For a control group, only vehicle was applied.
After the pre-treatment with test compounds or vehicle, FeSO4 was added to a final concentration of 50 uM, and the cultures were maintained for 24 hours in a CO2 incubator. During incubation, lactate dehydrogenase (LDH) was released into the medium upon neuronal death by the oxidative toxicity of iron. The extent of neuronal damage was assessed by measuring the amount of LDH released into the media. The protective effect of the compounds of interest on neurons was evaluated by calculating the LDH reduction rate of treatment group compared with that of the control group.

[2] = test system: isolated rat aorta constricted with methoxamine; test: Vasodilation effects on isolated aorta of rats (methoxamine-constricted rings); conditions: isolated rat aorta constricted with methoxamine (3 μM); 50% relaxation
From the text: Male Sprague-Dawly rats (350-450 g, obtained from the Experimental Animal Team of the Korea Research Institute of Chemical Technology) were knocked unconscious by hitting the occipital region, sacrificed by cervical dislocation, and underwent thoracotomy. After being quickly removed, the thoracic aorta was deprived of the adipose tissue and cut into aortic rings of 3 mm width. The aorta was lightly rubbed with cotton club soaked in a modified Krebs Henseleit buffer (Physiological Salt Solution, PSS) to remove the inner epithelial layer therefrom.
Thereafter, 3×10^−6 M methoxamine was applied to induce an intensive constriction in the vascular smooth muscle. When the vasoconstriction induced by the methoxamine was reached and maintained to a maximum, test compounds and controls were cumulatively added to the organ baths in concentrations of 1, 3, 10 and 30 μM so as to examine the vasodilation effect.
The change rate of constriction by the addition of the drugs compared to the maximal constriction induced by methoxamine was calculated to plot a concentration-relaxation response curve.

[3] = test system: isolated rat hearts; test: Cardioprotective activity in isolated ischemic heart models of rats (Langendorff, global ischemia/reperfusion); conditions: for EDP (MmHg): left ventricular end-diastolic pressure after 30 min reperfusion; for LDVP × HR (%): reperfusion double product as % of pretreatment DP, 30 min global ischemia, 30 min reperfusion; for TTC: time to contracture during global ischemia
Protocol: Male Sprague-Dawley rats weighing 300-450 g were anesthetized with sodium pentobarbital (100 mg/kg, i.p.). The tail vein was injected with heparin (1,000 U/kg) and then the trachea was intubated. […] A latex balloon filled with solvent (ethanol: water=1:1 (v/v)) and attached to a metal cannula was placed in the left ventricle through pulmonary vein and connected to a Isotec pressure transducer (H.S.E., Germany) for measurement of left ventricular pressure (LVP). […] Then, baseline contractile function, heart rate (HR), and coronary flow (CF) (extracorporeal electromagnetic flow probe, Narco Bio-System, U.S.A.) were measured. Cardiac contractile function was calculated by subtracting LVEDP from LV peak systolic pressure (LVSP), yielding developed pressure (LVDP). Double product (DP), another important parameter for assessing cardiac performance, was calculated by multiplying HR by LVDP. Throughout the experiment, all these parameters were measured, and calculated before and 10 min after pretreatment with each compound and 30 min after the onset of reperfusion with buffer. Data on reperfusion DP were further expressed as the percentage to pretreatment DP.
We then rendered the hearts globally ischemic by completely shutting off the perfusate for 30 min. Severity of ischemia was determined as the time to contracture (TTC, min) during global ischemia in which the first 5 mmHg increase in EDP was observed. Then, the hearts were reperfused and, 30 min later, contractile function (LVDP, DP) and cumulative reperfusion lactate dehydrogenase (LDH) release were measured. LDH was measured as a sensitive index for loss of cell viability with a kit supplied by Boerhinger Mannheim based on the technique of Wroblewski and LaDue [F. Wroblewski and JS.

[4] = test system: ischemic myocardium damage model of anesthetized rats; test: Cardioprotective activity in ischemic heart models of rats (LAD occlusion/reperfusion, anesthetized rats); assay type: in vivo, rat; conditions: rat, in vivo, iv, 0.3 mg/kg
Protocol: After trachetomy, the rats were rendered to respire artificially at a rate of 60/min with a stroke volume of 10 ml/kg. Cannulars were inserted into the fermoral vein and the fermoral artery and used for drug administration and blood pressure measurement, respectively.
In the ischemic myocardial injury models, the body temperature has an important influence on the results. To avoid the change in the body temperature, a body temperature measuring probe was inserted into the rectum of each rat and the body temperature was constantly kept at 37° C. with the aid of a homeothermic blanket control unit.
Afterwards, during testing, a continuous measurement was made of the mean arterial blood pressures and heart rates from the rats. For the measurement of the blood pressure, a pressure transducer, such as that manufactured by Grass Ins., MA, U.S.A., identified as Model Statham P23XL, was used.
The heart rate was measured by a tachometer, such as that manufactured by Gould Inc., Ohio, U.S.A., identified as Biotachometer. In addition, all of the changes occurring were continuously recorded through the Gould 2000 chart recorder, manufactured by Gould Inc.
The left coronary artery was occluded according to the Selye H. method as follows. The rats underwent a left thoracotomy operation for partial opening of the chest and the right-side chest was pressurized by the middle finger of the left hand to push the heart out. Immediately after the left anterior descending coronary artery hereinafter referred to as (LAD) was carefully stitched using a suture needle with 5-0 silk ligature, the heart was then repositioned in the thoracic cavity while both ends of the ligature were situated outside. The opposite ligature ends were passed through a PE tube (PE100, 2.5 cm) and allowed to stand loose for 20 min for stabilization. Via the cannula inserted into the femoral vein, vehicles or drugs were administered into the rats which were rendered to stand for 30 min in order to sufficiently elicit the efficacies of the drugs.
Next, the PE tube which had the doubled strands of the ligature passed therethrough was pushed toward the heart and then, set upright by tightly pulling end regions of the ligature with a hemostatic pincette while pressing the coronary artery.
After the reocclusion of the coronary artery in accordance with the above procedure, the rats were administered with 2 ml of a 1% Evans blue through an intravenous route. Subsequently, an excess of pentobarbital was intravenously injected to kill the rats, after which the heat was removed and then, deprived of the right ventricle and both atria. The left ventricle was cut horizontally to the heart apex into 5 or 6 slices which were weighed. From the surface of each slice, images were input with the aid of a Hi-scope into a computer installed with an image analyzing program (Image Pro Plus). From the images input into the computer, the area of the normal blood stream tissue region which appeared blue in a computer monitor and the area which appeared colorless were measured. The percentage of the colorless area to the total area of each slice was calculated and multiplied by the weight of each slice to determine the area at risk (AAR) of each slice. The AAR obtained from each slice was summed for all slices and the total AAR was divided by the total weight of the left ventricle to yield % AAR, as shown in the following mathematical formula 1:
AAR(%)=(summed AAR for all slices)/(total weight of left ventricle)×100 [Mathematical Formula 1]
During this fixation, 2,3,5-triphenyltetrazolium chloride was reduced into formazan dye by the myocardial dehydrogenase and its cofactor NADH, so that the normal regions of the tissue were colored brick-red. In contrast, the infarct zones of the tissue were deficient in the dehydrogenase and its cofactor, so that no reduction occurred on the 2,3,5-triphenyltetrazolium, allowing the color to remain unchanged.

[5] = 10 μM, cumulative reperfusion LDH release

| Compound | % Protection [1] | IC50 [2] | LDH (U/g) [3, 5] | EDP (MmHg) ([3]; 10 μM) | LDVP × HR (%) ([3]; 10 μM) | TTC ([3]; 10 μM) | further results |
| --- | --- | --- | --- | --- | --- | --- | --- |
| (2S, 2aS, 10aR)-[(3,4-b)-2a,10a-dihydro-2-dimethoxymethyl-2-methyl-12-nitro-2H-1-benzopyrano]-[(1,2-d)-10H-indolino]-4-oxomorpholine [Example 63] | 100% |  |  |  |  |  |  |
| CCOC(=O)[C@H]1Cc2cc(F)ccc2N1[C@H]1c2cc([N+](=O)[O-])ccc2O[C@](C)(C(OC)OC)[C@@H]1O [Example 15, 1-[(2S, 3R,4S)-3,4-dihydro-2-dimethoxymethyl-3-hydroxy-2-methyl-6-nitro-2H-1-benzopyran-4-yl]-(2R)-2,3-dihydro-1H-5-fluoroindole-2-carboxylic acid ethyl ester] |  | > 30 µM | 12.0 U/g | 2.7 MmHg | 53.3% | 24.8 min |  |
| CCOC(=O)[C@@H]1Cc2cc(OC)ccc2N1[C@H]1c2cc([N+](=O)[O-])ccc2O[C@](C)(C(OC)OC)[C@@H]1O [Example 12, 1-[(2S, 3R, 4S)-3,4-dihydro-2-dimethoxymethyl-3-hydroxy-2-methyl-6-nitro-2H-1-benzopyran-4-yl]-(2S)-2,3-dihydro-1H-5-methoxyindole-2-carboxylic acid ethyl ester] | 85% |  |  |  |  |  |  |
| CCOC(=O)[C@H]1Cc2cc(OC)ccc2N1[C@@H]1c2cc([N+](=O)[O-])ccc2O[C@@](C)(C(OC)OC)[C@H]1O [Example 36, 1-[(2R, 3S, 4R)-3,4-dihydro-2-dimethoxymethyl-3-hydroxy-2-methyl-6-nitro-2H-1-benzopyran-4-yl]-(2R)-2,3-dihydro-1H-5-methoxyindole-2-carboxylic acid ethyl ester] |  | > 30 µM |  | 23.3 MmHg | 53.1% | 24.7 min | LDH (U/g) [3]: 18.9 U/g; AAR/LV (%) [4]: 37.5%; IZ/AAR (%) [4]: 41.4% |
| COC(=O)c1cc2ccccc2n1[C@H]1c2cc([N+](=O)[O-])ccc2O[C@](C)(C(OC)OC)[C@@H]1O [Example 48, 1-[(2S, 3R, 4S)-3,4-dihydro-2-dimethoxymethyl-3-hydroxy-2-methyl-6-nitro-2H-1-benzopyran-4-yl]-1H-indole-2-carboxylic acid methyl ester] |  | 24 µM | 16.7 U/g | 9.5 MmHg | 79.5% | 22.0 min |  |
| COC(=O)[C@H]1CCc2ccccc2N1[C@H]1c2cc([N+](=O)[O-])ccc2O[C@](C)(C(OC)OC)[C@@H]1O [Example 54, 1-[(2S, 3R, 4S)-3,4-dihydro-2-dimethoxymethyl-3-hydroxy-2-methyl-6-nitro-2H-1-benzopyran-4-yl]-(2R)-1,2,3,4-tetrahydro-1H-quinoline-2-carboxylic acid methyl ester] | 100% |  |  |  |  |  | % Protection ([1]; listed as EX. 54): 101% |
| COC(=O)[C@@H]1Cc2ccccc2N1[C@H]1c2cc([N+](=O)[O-])ccc2O[C@](C)(C(OC)OC)[C@@H]1O [Example 6, 1-[(2S, 3R, 4S)-3,4-dihydro-2-dimethoxymethyl-3-hydroxy-2-methyl-6-nitro-2H-1-benzopyran-4-yl]-1H-(2S)-2,3-dihydroindole-2-carboxylic acid methyl ester] |  | 15.6 µM | 10.4 U/g | 21 MmHg | 62.2% | 24.5 min |  |
| COC(=O)[C@H]1Cc2ccccc2N1[C@H]1c2cc([N+](=O)[O-])ccc2O[C@](C)(C(OC)OC)[C@@H]1O [Example 5, 1-[(2S, 3R, 4S)-3,4-dihydro-2-dimethoxymethyl-3-hydroxy-2-methyl-6-nitro-2H-1-benzopyran-4-yl]-1H-(2R)-2,3-dihydroindole-2-carboxylic acid methyl ester] | 79% |  |  |  |  |  |  |
| CCOC(=O)[C@@H]1Cc2ccccc2N1[C@@H]1c2cc([N+](=O)[O-])ccc2O[C@](C)(C(OC)OC)[C@H]1O [Example 4, 1-[(2S, 3S, 4R)-3,4-dihydro-2-dimethoxymethyl-3-hydroxy-2-methyl-6-nitro-2H-1-benzopyran-4-yl]-(2S)-2,3-dihydro-1H-indole-2-carboxylic acid ethyl ester] |  |  |  |  |  |  | % Protection ([1]; listed as EX. 4): 98% |
| CCOC(=O)[C@@H]1Cc2cc(F)ccc2N1[C@H]1c2cc([N+](=O)[O-])ccc2O[C@](C)(C(OC)OC)[C@@H]1O [Example 16, 1-[(2S, 3R, 4S)-3,4-dihydro-2-dimethoxymethyl-3-hydroxy-2-methyl-6-nitro-2H-1-benzopyran-4-yl]-(2S)-2,3-dihydro-1H-5-fluoroindole-2-carboxylic acid ethyl ester] | 73% |  |  |  |  |  |  |
| (2S, 2aR, 10aS)-[(3,4-b)-2a,10a-dihydro-2-dimethoxymethyl-2-methyl-12-nitro-2H-1-benzopyrano]-[(1,2-d)-10H-indolino]-4-oxomorpholine [Example 62] |  | > 30 µM | 20.5 U/g | 36.5 MmHg | 67.2% | 23.1 min |  |
| CC1(C)Oc2ccc(C#N)cc2C(N2CCCC2=O)C1O (stereo not shown) [CromaKalim, Cromakalim, reference compound] |  | 0.067 µM |  |  |  |  |  |
| COC(=O)[C@H]1CCc2ccccc2N1[C@@H]1c2cc([N+](=O)[O-])ccc2O[C@](C)(C(OC)OC)[C@H]1O [Example 56, 1-[(2S, 3S, 4R)-3,4-dihydro-2-dimethoxymethyl-3-hydroxy-2-methyl-6-nitro-2H-1-benzopyran-4-yl]-(2R)-1,2,3,4-tetrahydro-1H-quinoline-2-carboxylic acid methyl ester] |  | 11.4 µM | 18.8 U/g | 29.0 MmHg | 61.0% | 22.2 min |  |
